The subject of one data set is blood-brain barrier. The data set is described as follows: Transportation of Evan's Blue (EB) dye across the BBB after IV injection of peptide. It counts as in vivo, mouse. The conditions noted are these: for EB dye in brain: EB 10 min later, brain collected 1 h after EB. How it is done: To explore whether K16ApoE (SEQ. ID. NO: 42) compromises integrity of the BBB, the peptide was first injected by IV followed by injection of Evan's Blue (EB; a routinely used small molecule blue dye with a molecular weight of 960.81) by IV into the femoral vein of a mouse. Cardiac perfusion was performed and the brains of the mice were removed and evaluated approximately 2 hours following injection of the dye. As controls, a peptide consisting of 16 lysine residues (K16) and a 20-amino acid peptide comprising the LDLR-binding domain of ApoE (ApoE-FITC; (SEQ ID NO:13)), were used. The particulars of each administration are as follows: • 1) 67.5 nanomoles of K16 injected first, then ˜40 μL 2% EB was injected. • 2) Same as 1 but K16 and EB mixed prior to injection. • 3) 67.5 nanomoles of ApoE-FITC injected first, then ˜40 μL 2% EB was injected. • 4) Same as 3 but ApoE-FITC peptide and EB was mixed prior to injection. • 5) 67.5 nanomoles of K16ApoE injected first, then ˜40 μL 2% EB was injected. • 6) Same as 5 but K16ApoE peptide and EB was mixed first before injection.
Using the method described in Example 1, various amounts of K16ApoE (SEQ. ID. NO: 42) was injected followed by administration of ˜40 μL 2% EB. The particulars of each administration are as follows: • 1) EB alone. • 2) 50 μg (11.25 nanomoles) K16ApoE first, followed by administration of EB. • 3) 100 μg (22.5 nanomoles) K16ApoE first, followed by administration of EB. • 4) 200 μg (45 nanomoles) K16ApoE first, followed by administration of EB. • 5) 300 μg (67.5 nanomoles) K16ApoE first, followed by administration of EB.
˜40 μL of 2% EB was injected 10 min after injection of various amounts of K16ApoE (75 μg, 100 μg, 150 μg, 250 μg, and 300 μg) or K26ApoE (25 μg, 50 μg, 75 μg, 100 μg, 125 μg, and 150 μg). K26ApoE (SEQ ID NO: 139) having the sequence:
Brain tissue as was collected 1 h following EB injection. All injections were at the femoral vein.

Data set [1] can be described thus: Tissue distribution of Evans Blue (EB) after delivery via K16ApoE. It counts as in vivo, mice. As to conditions: tissues 1 h after EB. How it is done: Mice were injected with various amounts of K16ApoE peptide (0 μg, 150 μg, 100 μg, 75 μg, 50 μg, 25 and μg) first. EB (40 μL of a 2% solution was injected 10 min after injection of the peptide. Tissues (brains, lungs, heart, liver, spleen and kidney) were collected 1 h after EB delivery. All injections were through the femoral vein.

Data set [2] is described as follows: Residence time of EB dye in brain following transportation by the peptide. It counts as in vivo, mice. The conditions noted are these: EB 10 min after 300 μg K16ApoE. The protocol:
A series of mice were administered 300 μg of K16ApoE followed by administration of ˜40 μL 2% EB 10 min after administration of the peptide. As a control, only EB was injected, cardiac perfusion was done 6 hours after EB injection, followed by collection of brain. For all other mice, perfusion and collection of brains was performed 15 min, 30 min, 1 h, 2 h, 4 h, 6 h, 12, h, and 24 h following administration of EB.

Where no end group is shown, it is not given here.

In the case of “KKKKKKKKKKKKKKKKKKKKKKKKKK- LRVRLASHLRKLRKRLLRDA (KKKKKKKKKKKKKKKKKKKKKKKKKKLRVRLASHLRKLRKRLLRDA) [K26ApoE]”, the “EB dye in brain” value in the data set with blood-brain barrier (25 μg peptide) is listed as “no dye was observed”; with blood-brain barrier (50 μg peptide), “only a small amount of dye present”; in the data set on blood-brain barrier (75 μg peptide), “Increasing EB is observed”. Moreover, the “effectiveness in delivering EB to the brain relative to K16ApoE” value in the data set with blood-brain barrier (comparison of peptide amounts needed) is given as “approximately two-fold”.

As for “KKKKKKKKKKKKKKKKLRVRLASHLRKLRKRLLRDA [K16ApoE, KKKKKKKKKKKKKKKKLRVRLASHLRKLRKRLLRDA]”, in data set [1] (0-150 μg K16ApoE, EB 10 min later), the EB in brain entry is “EB goes into brain only after injection of the peptide”. The “EB stain in organs” value in data set [1] (EB injected after K16ApoE injection) was “Kidney, spleen and liver are stained with EB”.

Take `Cc1cc(-c2ccc(/N=N/c3ccc4c(S(=O)(=O)[O-])cc(S(=O)(=O)[O-])c(N)c4c3O)c(C)c2)ccc1/N=N/c1ccc2c(S(=O)(=O)[O-])cc(S(=O)(=O)[O-])c(N)c2c1O.[Na+].[Na+].[Na+].[Na+]` [EB, Evan's Blue]: the “EB stain in organs” value in data set [1] (EB injected without K16ApoE) was “Kidney, spleen, liver and heart show some EB-stain”. Also, the “time post EB administration from which dye is observed in brain” value in data set [2] was 15 min. Besides, in data set [2] (dye remains intense), the “time EB is retained well in the brain” value is “up to 4 h”. Further, the “time EB is probably retained in the brain (less intense dye)” value in data set [2] (longest time point tested) is “up to 24 h”.

Values taken from patent US20170007669A1, “PEPTIDE-MEDIATED DELIVERY OF ACTIVE AGENTS ACROSS THE BLOOD-BRAIN BARRIER” (Mayo Foundation for Medical Education and Research, priority 2015, published 2017).
